Read-outs that look alike come from different tables or passages of the source.
Legend:
Assay type in all cases: biochemical
[1] = target: PIM3 (Homo sapiens, UniProt Q86V86); test: Kinase screen: PIM3 assay
Protocol: (§1) Generally, the same procedure was used for all assays. Since the total assay volume was 25.5 microliters, 0.5 microliters of inhibitors at 51× assay concentration were added to the plates before any other addition.
(§2) The basic procedure was to add 0.5 microliters inhibitor/control in DMSO to plate. Fifteen microliters of enzyme/substrate/buffer mix were added and incubated for 5 min. Ten microliters MgATP at the relevant concentration were added and incubated for 30 min. The assay was stopped by adding 5 microliters of 3% orthophosphoric acid. The assay was transferred to a p81 filter plate and read in a scintillation counter of 30 sec/well. Note that this assay procedure was not followed for MKK1, which instead involved a two-step assay, and PKC alpha, which required the addition of lipid vesicles.
PIM3 assay: PIM3 (5-20 mU diluted in 50 mM Tris pH 7.5, 0.1 mM EGTA, 0.1% b-mercaptoethanol, 1 mg/ml BSA) was assayed against a substrate peptide ([…]) (SEQ ID NO: 23) in a final volume of 25.5 μl containing 50 mM Tris pH 7.5, 0.05% b-mercaptoethanol, 300 μM substrate peptide, 10 mM magnesium acetate and 0.02 mM [33P-g-ATP] (50-1000 cpm/pmole) and incubated for 30 min at room temperature. Assays were stopped by addition of 5 μl of 0.5 M (3%) orthophosphoric acid and then harvested onto P81 Unifilter plates with a wash buffer of 50 mM orthophosphoric acid.

[2] = target: Lck (Homo sapiens, UniProt P06239); test: Kinase screen: LCK assay
Protocol: as §1, §2
(500-1000 cpm/pmole) and incubated for 15 min at room temperature Assays were stopped by addition of 5 μl of 0.5 M (3%) orthophosphoric acid and then harvested onto P81 Unifilter plates with a wash buffer of 50 mM orthophosphoric acid.

[3] = target: T1, MST2 (Homo sapiens, UniProt Q13188); test: Kinase screen: MST2 assay
T1 sequence (Q13188 1-491): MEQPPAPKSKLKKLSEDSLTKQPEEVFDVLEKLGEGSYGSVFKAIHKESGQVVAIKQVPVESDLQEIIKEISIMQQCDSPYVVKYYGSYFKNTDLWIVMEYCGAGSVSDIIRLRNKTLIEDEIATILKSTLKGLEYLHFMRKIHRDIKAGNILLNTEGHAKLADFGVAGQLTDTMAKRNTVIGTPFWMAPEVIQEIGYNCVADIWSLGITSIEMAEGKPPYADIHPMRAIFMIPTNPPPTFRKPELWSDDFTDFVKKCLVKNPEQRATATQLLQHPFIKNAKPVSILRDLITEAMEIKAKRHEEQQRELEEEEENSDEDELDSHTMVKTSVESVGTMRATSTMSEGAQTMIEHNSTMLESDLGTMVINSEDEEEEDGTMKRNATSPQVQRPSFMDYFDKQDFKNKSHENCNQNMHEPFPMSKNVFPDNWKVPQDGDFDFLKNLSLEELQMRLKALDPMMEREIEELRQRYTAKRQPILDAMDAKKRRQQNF
Protocol: as §1, §2
MST2 assay: MST2 (5-20 mU diluted in 50 mM Tris pH 7.5, 0.1 mM EGTA, 0.1% b-mercaptoethanol, 100 μM Vanadate) was assayed against MBP in a final volume of 25.5 μl containing 50 mM Tris pH 7.5, 0.05% b-mercaptoethanol, 0.33 mg/ml MBP, 10 mM magnesium acetate and 0.02 mM [33P-g-ATP] (50-1000 cpm/pmole) and incubated for 30 min at room temperature. Assays were stopped by addition of 5 μl of 0.5 M (3%) orthophosphoric acid and then harvested onto P81 Unifilter plates with a wash buffer of 50 mM orthophosphoric acid.

[4] = target: NEK6 (Homo sapiens, UniProt Q9HC98); test: Kinase screen: NEK6 assay
Protocol: as §1, §2
(500-1000 cpm/pmole) and incubated for 30 min at room temperature. Assays were stopped by addition of 5 μl of 0.5 M (3%) orthophosphoric acid and then harvested onto P81 Unifilter plates with a wash buffer of 50 mM orthophosphoric acid.

[5] = target: MST4 (Homo sapiens, UniProt Q9P289); test: Kinase screen: MST4 assay; details: 10 micromolar compound; for remaining activity at 10 µM: read-out: mean activity remaining (as a percentage of the original activity), MST4
Protocol: as §1, §2
MST4 assay: 5-20 mU of MST4 (diluted in 50 mM Tris (pH 7.5), 0.1 mM EGTA) was assayed against MBP in a final volume of 25.5 μl containing 50 mM Tris (pH 7.5), 0.1 mM EGTA, 0.33 mg/ml MBP, 10 mM magnesium acetate and 0.02 mM [33P-g-ATP] (500-1000 cpm/pmole) and incubated for 30 mins at room temperature. Assays were stopped by addition of 5 μl of 0.5M (3%) orthophosphoric acid. Assays were harvested onto P81 Unifilter plates using a wash buffer of 50 mM orthophosphoric acid.

[6] = target: BTK (Homo sapiens, UniProt Q06187); test: Kinase screen: BTK assay; details: 10 micromolar compound; for remaining activity at 10 µM: read-out: mean activity remaining (as a percentage of the original activity), BTK
Protocol: as §1, §2
(50-1000 cpm/pmole) and incubated for 30 min at room temperature. Assays were stopped by addition of 5 μl of 0.5 M (3%) orthophosphoric acid and then harvested onto P81 Unifilter plates with a wash buffer of 50 mM orthophosphoric acid.

[7] = 10 micromolar compound, read-out: mean activity remaining (as a percentage of the original activity), PIM3
[8] = 10 micromolar compound, read-out: mean activity remaining (as a percentage of the original activity), Lck
[9] = 10 micromolar compound, read-out: mean activity remaining (as a percentage of the original activity), MST2
[10] = 10 micromolar compound, read-out: mean activity remaining (as a percentage of the original activity), NEK 6

MST4, sequence (Q9P289 whole entry, species assumed): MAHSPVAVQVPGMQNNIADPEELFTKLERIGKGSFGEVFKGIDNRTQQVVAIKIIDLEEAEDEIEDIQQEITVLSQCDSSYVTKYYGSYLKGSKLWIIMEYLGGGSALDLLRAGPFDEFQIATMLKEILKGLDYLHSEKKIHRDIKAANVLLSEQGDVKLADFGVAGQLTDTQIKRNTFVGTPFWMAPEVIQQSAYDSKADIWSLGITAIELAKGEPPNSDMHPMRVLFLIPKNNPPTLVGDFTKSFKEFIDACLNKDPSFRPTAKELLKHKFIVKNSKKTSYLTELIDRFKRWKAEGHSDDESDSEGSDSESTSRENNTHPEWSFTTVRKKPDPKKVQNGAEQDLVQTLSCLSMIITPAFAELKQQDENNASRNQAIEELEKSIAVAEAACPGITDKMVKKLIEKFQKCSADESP
Lck, sequence (P06239 whole entry, species assumed): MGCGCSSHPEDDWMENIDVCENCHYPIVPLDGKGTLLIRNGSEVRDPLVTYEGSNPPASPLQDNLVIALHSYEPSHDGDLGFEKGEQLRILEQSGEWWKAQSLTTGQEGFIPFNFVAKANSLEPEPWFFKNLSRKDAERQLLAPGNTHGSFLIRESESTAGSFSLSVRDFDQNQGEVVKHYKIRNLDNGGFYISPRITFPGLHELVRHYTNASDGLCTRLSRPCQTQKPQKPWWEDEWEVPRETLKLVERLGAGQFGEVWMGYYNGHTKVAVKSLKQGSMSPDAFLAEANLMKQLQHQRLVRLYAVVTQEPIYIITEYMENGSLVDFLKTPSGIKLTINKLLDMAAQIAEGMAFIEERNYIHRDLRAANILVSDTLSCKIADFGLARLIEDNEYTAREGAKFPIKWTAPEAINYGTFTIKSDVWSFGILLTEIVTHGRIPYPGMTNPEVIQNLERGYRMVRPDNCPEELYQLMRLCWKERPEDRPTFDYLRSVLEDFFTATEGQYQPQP
BTK, sequence (Q06187 whole entry, species assumed): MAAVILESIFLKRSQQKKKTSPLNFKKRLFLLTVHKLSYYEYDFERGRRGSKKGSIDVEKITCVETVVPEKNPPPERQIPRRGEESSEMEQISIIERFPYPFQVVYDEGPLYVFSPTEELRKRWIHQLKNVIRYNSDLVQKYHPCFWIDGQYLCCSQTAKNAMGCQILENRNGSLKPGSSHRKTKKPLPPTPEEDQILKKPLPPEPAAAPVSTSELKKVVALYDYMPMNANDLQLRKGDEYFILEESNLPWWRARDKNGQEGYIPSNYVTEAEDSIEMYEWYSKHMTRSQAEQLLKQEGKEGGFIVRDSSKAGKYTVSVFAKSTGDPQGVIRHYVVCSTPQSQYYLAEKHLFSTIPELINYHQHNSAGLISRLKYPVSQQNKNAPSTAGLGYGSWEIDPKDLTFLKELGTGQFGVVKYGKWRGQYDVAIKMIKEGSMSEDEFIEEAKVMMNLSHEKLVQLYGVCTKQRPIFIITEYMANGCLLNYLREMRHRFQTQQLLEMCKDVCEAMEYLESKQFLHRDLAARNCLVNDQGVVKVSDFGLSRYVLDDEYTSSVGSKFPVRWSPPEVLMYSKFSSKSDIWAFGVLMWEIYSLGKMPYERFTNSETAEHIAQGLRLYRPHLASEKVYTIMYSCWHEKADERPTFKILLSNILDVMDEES
NEK6, sequence (Q9HC98 whole entry, species assumed): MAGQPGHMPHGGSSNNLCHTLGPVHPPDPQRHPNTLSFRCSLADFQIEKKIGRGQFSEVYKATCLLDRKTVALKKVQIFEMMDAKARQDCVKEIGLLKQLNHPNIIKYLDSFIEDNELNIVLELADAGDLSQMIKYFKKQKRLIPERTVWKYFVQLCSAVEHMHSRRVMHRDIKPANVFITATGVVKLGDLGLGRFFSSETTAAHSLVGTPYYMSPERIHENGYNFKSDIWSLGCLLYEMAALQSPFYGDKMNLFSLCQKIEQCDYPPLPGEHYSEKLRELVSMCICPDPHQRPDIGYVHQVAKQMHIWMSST

SMILES | mean activity remaining (as a percentage of the original activity), PIM3 ([1]; 10 micromolar compound) | mean activity remaining (as a percentage of the original activity), Lck ([2]; 10 micromolar compound) | mean activity remaining (as a percentage of the original activity), MST2 ([3]; 10 micromolar compound) | mean activity remaining (as a percentage of the original activity), NEK 6 ([4]; 10 micromolar compound) | mean activity remaining (as a percentage of the original activity), MST4 [5] | mean activity remaining (as a percentage of the original activity), BTK [6] | remaining activity at 10 µM ([1]; PIM3, 10 μM, read-out: Mean Remaining Enzyme Activity (%)) | remaining activity at 10 µM ([2]; Lck, 10 μM, read-out: Mean Remaining Enzyme Activity (%)) | remaining activity at 10 µM ([3]; MST2, 10 μM, read-out: Mean Remaining Enzyme Activity (%)) | remaining activity at 10 µM ([4]; NEK6, 10 μM, read-out: Mean Remaining Enzyme Activity (%)) | remaining activity at 10 µM [1, 7] | remaining activity at 10 µM [2, 8] | remaining activity at 10 µM [3, 9] | remaining activity at 10 µM [4, 10] | remaining activity at 10 µM [5] | remaining activity at 10 µM [6]
CC(C)c1cnn2c(NCc3ccccc3F)cc(NCCCCCN)nc12 [ICEC-0232] | 76% | 62% | 82% | 74% | 85% | 90% |  |  |  |  |  |  |  |  |  | 
CC(C)c1cnn2c(NCc3ccccc3)cc(NCCCCCCCN)nc12 [BS-181] |  |  |  |  |  |  | 78% | 95% | 112% | 85% |  |  |  |  |  | 
CC[C@H](CO)Nc1cc(NCc2ccccc2)n2ncc(C(C)C)c2n1 [ICEC0067] |  |  |  |  |  |  |  |  |  |  | 96% | 70% | 89% | 101% | 103% | 84%
C=C[C@H](CO)Nc1cc(NCc2ccccc2)n2ncc(C(C)C)c2n1 [ICEC0065] |  |  |  |  |  |  |  |  |  |  | 100% | 74% | 87% | 105% | 91% | 94%
CC(C)c1cnn2c(NCc3ccccc3)cc(N[C@@H](CO)[C@H](O)CO)nc12 [ICEC0318, (3S)-3-(7-(Benzylamino)-3-isopropylpyrazolo[1,5-a]pyrimidin-5-ylamino)butane-1,2,4-triol] |  |  |  |  |  |  |  |  |  |  | 101% | 85% | 86% | 87% | 92% | 91%

From patent US8067424B2, “Selective inhibitors for cyclin-dependent kinases” (Emory University, priority 2007, dated 2011)
